These results are taken from patent US20080318908A1, “USE OF GABA AND GABAB AGONISTS” (TRUSTEES OF TUFTS COLLEGE, priority 2002, published 2008).

Common to all, as to type: cell-based, rat
Assay [1] relates to islets. The assay can be described thus: Glucose-stimulated proliferation in islets (DNA content). The procedure:
Others have shown that islet mass can increase by as much as 50% in just 96 hours of glucose infusion in vivo, an effect that results from increases in both cell size and cell number^15. Given that metabolism of glucose alone promotes secretion from β cells, we tested the hypothesis that glucose-stimulated proliferation in islets involves the activation of GABAB receptors by GABA released during glucose application. Islets were exposed to 5.6 mM glucose (a maximal proliferative stimulus in human islets) for 4.75 hours in the presence or absence of 2OH-saclofen or the GBR1 N-terminal antibody. Glucose promoted a small, but significant, 7±1% stimulation of control islets during this time (FIG. 5A).

The test system of assay [2] is islets. The assay can be described thus: Islet total DNA content, Cyquant fluorescence assay. As to the method:
To examine the potential function of GABAB receptor signaling in islet tissue, islets were enzymatically isolated from exocrine pancreas and studied in vitro. Islets were size-selected for these studies because of our observation that small islets (<150 μm diameter) express GABAB receptors more abundantly. Islets (equivalent to ˜10,000 cells per well of a 96 well culture plate) were incubated for 45 minutes with (or without) 100 μM GABA, washed once with growth medium M199, maintained for 4 hours at 37° C., and subsequently analyzed for total DNA content using a Cyquant (Molecular Probes) fluorescence assay. […] Large islets, by contrast, were much less responsive to GABA; increasing only by 15±4.5% in the same time period. The growth-promoting effect of GABA was mimicked by the selective GABAB receptor agonist, S-baclofen and inhibited with either 2OH-saclofen (a selective inhibitor of GABAB receptors) or the N-terminal antibody to the GABAB receptor (FIG. 4A).
To further evaluate the interactions between glucose and GABAB receptor activation, we measured GABA-mediated proliferation over a range of glucose concentrations.

Assay [3] has as its system islets. The assay can be described thus: [3H]thymidine incorporation in islets. The settings on record: label present throughout the 4.75 hour experimental period. As to the method: [^3H]thymidine incorporation was employed as an alternative assay for DNA synthesis, with similar results to those of the fluorescence assay. The labeled nucleotide was added to the culture medium and was present throughout the 4.75 hour experimental period. GABA, and the agonist baclofen, acting via GABAB receptors produced a respective 143±19% and 115±4% increase in [^3H]thymidine incorporation (FIG. 4B).
(In general: Uptake of a labelled nucleoside into DNA is a usual measure of proliferation.)

Assay [4] relates to islets. Nature of the assay: BrdU labeling of dividing islet cells. The settings on record: 4.75 hours; GABA-treated versus control islets. The procedure: To identify which cells in islets underlie the increase in DNA synthesis, cells treated with GABA were exposed to BrdU, to label the dividing cells, and compared to control cells. […] Given the brief incorporation period (4 hours following GABA exposure), such profiles imply that the responsive cells are likely to be synchronized in S phase.

A further assay relates to spleen cells. The assay can be described thus: DNA content of dissociated cultured spleen, Cyquant assay. The note with it: 100 micromolar for 45 minutes, then four hours in fresh medium at 37°. As to the method: An experiment to test the ability of GABA and the GABAB receptor agonist to stimulate growth of other tissues was undertaken. Rat spleen was mechanically dissociated in trypsin, washed, and plated identical to the experiments using rat islets, described above. The dissociated tissue was cultured in the presence of 100 micromolar GABA or baclofen for 45 minutes and compared to cultured but untreated dissociated spleen. After 45 minutes the media was changed and the tissue incubated in fresh medium for four hours at 37°. DNA measurements were made by the Cyquant assay by Molecular Probes.

The structures appear in SMILES notation.

As to `NCC(O)(CS(=O)(=O)O)c1ccc(Cl)cc1` (stereo not shown) [2OH-saclofen, reference compound], the “DNA, % of DNA content measured at the beginning of the incubation period” value in the assay with islets [1] (5.6 mM glucose for 4.75 hours in the presence of 2OH-saclofen) stood at 92±4%. Also, the “effect on growth-promoting effect of GABA” value in the assay with islets [2] (isolated islets with GABA, FIG. 4A, 100 μM antagonist or antibody 1:1000) was “inhibited”.
With `NCCCC(=O)O` [GABA, 4-aminobutanoic acid], the “GABA-stimulated DNA synthesis at moderate glucose” value with islets [2] (45 min exposure to 100 μM GABA, 5.6 mM glucose) was “peaked at moderate glucose concentrations”. Further, in the assay on islets [2] (45 min exposure to 100 μM GABA, 16.7 mM glucose), the “GABA-stimulated DNA synthesis at higher glucose” value is reported as “suppressed the stimulatory effect of GABA”. In addition, the “increase in DNA synthesis, large islets” value in the assay on islets [2] (large islets, 100 μM GABA 45 minutes, same 4.75 hour period) stood at 15±4.5%. Moreover, in the assay on islets [2] (small islets (<150 μm diameter), 100 μM GABA 45 minutes, then 4 hours at 37° C., 4.75 hours total), the “increase in DNA synthesis, small islets” value is 45%. For the same compound, in the assay with islets [3], the “increase in [3H]thymidine incorporation” value came to 143±19%. Further, the BrdU incorporation entry in the assay on islets [4] is “detectable BrdU incorporation”. Also, in the assay with spleen cells, the “DNA content of cultured spleen cells versus untreated” value was “promoted an increase in the DNA content”.
On to `OC[C@H]1OC(O)[C@H](O)[C@@H](O)[C@@H]1O` (stereo partly shown) [Glucose], for which the “stimulation of control islets (DNA)” value in the assay on islets [1] (5.6 mM glucose for 4.75 hours) is on record as 7±1%.
For the compound `NC[C@@H](CC(=O)O)c1ccc(Cl)cc1` [S-baclofen, reference compound], in the assay on islets [2] (isolated islets, FIG. 4A, 100 μM), the “growth-promoting effect of GABA mimicked by agonist” value is recorded as “mimicked”.
Take `NCC(CC(=O)O)c1ccc(Cl)cc1` (stereo not shown) [baclofen, 4-amino-3-(4-chlorophenyl)butanoic acid, reference compound]: the “increase in [3H]thymidine incorporation” value in the assay on islets [3] was 115±4%. Also, in the assay with spleen cells, the “DNA content of cultured spleen cells versus untreated” value is “promoted an increase in the DNA content”.
